According to publication PMC12298351, “Novel 3,19-(N-Phenyl-3-(4-fluorophenyl)-pyrazole) Acetal of Andrographolide Promotes Cell Cycle Arrest and Apoptosis in MDA-MB-231 Breast Cancer Cells” (Pharmaceuticals, 2025):

Assays:
MDA-MB-435 = details: MDA-MB-435, Melanoma
SNB-75 = details: SNB-75, CNS
PC-3 = details: PC-3, Prostate
786-0 = details: 786-0, Renal
HCT-15 = details: HCT-15, Colon
SK-MEL-2 = details: SK-MEL-2, Melanoma
[1] = DPPH radical scavenging assay; details: 25 µM test compound, 0.1 mM DPPH, acetonitrile, 30 min
In short: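 Compounds at 25 µM in acetonitrile mixed 1:2 with 0.1 mM DPPH in acetonitrile, kept 30 min in the dark at room temperature. Absorbance read at 517 nm; % scavenging = (Ac − As)/Ac × 100, Ac being DPPH blank. Ascorbic acid positive control.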

SK-MEL-5 = details: SK-MEL-5, Melanoma
SF-295 = details: SF-295, CNS
BT-549 = assay type: cell-based; details: BT-549, Breast
COLO 205 = details: COLO 205, Colon
HCC-2998 = details: HCC-2998, Colon
SNB-19 = assay type: cell-based; details: SNB-19, CNS
SF-539 = details: SF-539, CNS
OVCAR-5 = details: OVCAR-5, Ovarian
HT29 = details: HT29, Colon
OVCAR-4 = assay type: cell-based; details: OVCAR-4, Ovarian
HCT-116 = assay type: cell-based; details: HCT-116, Colon
MOLT-4 = details: MOLT-4, Leukemia
[2] = read-out: 50% lethal concentration (LC50)
[3] = read-out: 50% lethal concentration (LC50), Breast

Structure (SMILES): C=C1CCC2C3(C)COC(c4cn(-c5ccccc5)nc4-c4ccccc4)OC3CCC2(C)C1CC=C1C(=O)OCC1O (centres unmarked) [1a]
- GI50 (MDA-MB-435): 1.86 µM
- Total growth inhibition (TGI) (MDA-MB-435): 4.19 µM
- CC50 (MDA-MB-435; [2]): 9.43 µM
- GI50 (SNB-75): 1.36 µM
- Total growth inhibition (TGI) (SNB-75): 3.9 µM
- CC50 (SNB-75; [2]): 26.5 µM
- GI50 (MDA-MB-231; MDA-MB-231, Breast): 1.72 µM
- Total growth inhibition (TGI) (MDA-MB-231; MDA-MB-231/ATCC, Breast): 3.25 µM
- CC50 (MDA-MB-231; read-out: 50% lethal concentration (LC50), MDA-MB-231/ATCC, Breast): 6.15 µM
- GI50 (PC-3): 1.95 µM
- Total growth inhibition (TGI) (PC-3): 4.7 µM
- CC50 (PC-3; [2]): 66.9 µM
- GI50 (786-0): 2.03 µM
- Total growth inhibition (TGI) (786-0): 4.47 µM
- CC50 (786-0; [2]): 9.83 µM
- GI50 (HCT-15): 1.72 µM
- Total growth inhibition (TGI) (HCT-15): 3.45 µM
- CC50 (HCT-15; [2]): 6.91 µM
- Total growth inhibition (TGI) (HOP-92; HOP-92, Non-Small Cell Lung): 2.99 µM
- GI50 (HOP-92; HOP-92, Non-Small-Cell Lung): 1.53 µM
- CC50 (HOP-92; read-out: 50% lethal concentration (LC50), HOP-92, Non-Small Cell Lung): 5.83 µM
- GI50 (SK-MEL-2): 1.74 µM
- Total growth inhibition (TGI) (SK-MEL-2): 3.54 µM
- CC50 (SK-MEL-2; [2]): 7.2 µM
- Total growth inhibition (TGI) (NCI-H23; NCI-H23, Non-Small Cell Lung): 3.08 µM
- GI50 (NCI-H23; NCI-H23, Non-Small-Cell Lung): 1.69 µM
- CC50 (NCI-H23; read-out: 50% lethal concentration (LC50), NCI-H23, Non-Small Cell Lung): 5.64 µM
- % DPPH radical scavenging activity [1]: 58.66%
- GI50 (SK-MEL-5): 1.4 µM
- Total growth inhibition (TGI) (SK-MEL-5): 2.7 µM
- CC50 (SK-MEL-5; [2]): 5.2 µM
- GI50 (HS 578T; Breast): 2.31 µM
- Total growth inhibition (TGI) (HS 578T; Breast): 6.54 µM
- CC50 (HS 578T; [3]): > 100 µM
- GI50 (SF-295): 1.64 µM
- Total growth inhibition (TGI) (SF-295): 3.05 µM
- CC50 (SF-295; [2]): 5.67 µM
- GI50 (BT-549): 1.64 µM
- Total growth inhibition (TGI) (BT-549): 3.16 µM
- CC50 (BT-549; [2]): 6.1 µM
- GI50 (COLO 205): 2.01 µM
- Total growth inhibition (TGI) (COLO 205): 3.57 µM
- CC50 (COLO 205; [2]): 6.31 µM
- GI50 (HCC-2998): 1.68 µM
- Total growth inhibition (TGI) (HCC-2998): 3.11 µM
- CC50 (HCC-2998; [2]): 5.76 µM
- GI50 (SNB-19): 1.85 µM
- Total growth inhibition (TGI) (SNB-19): 3.78 µM
- CC50 (SNB-19; [2]): 7.73 µM
- GI50 (SF-539): 1.84 µM
- Total growth inhibition (TGI) (SF-539): 3.26 µM
- CC50 (SF-539; [2]): 5.77 µM
- Total growth inhibition (TGI) (NCI-H522; NCI-H522, Non-Small Cell Lung): 3.86 µM
- GI50 (NCI-H522; NCI-H522, Non-Small-Cell Lung): 1.9 µM
- CC50 (NCI-H522; read-out: 50% lethal concentration (LC50), NCI-H522, Non-Small Cell Lung): 7.85 µM
- GI50 (OVCAR-5): 1.86 µM
- CC50 (OVCAR-5; [2]): 8.71 µM
- GI50 (HL-60(TB); Leukemia): 2.32 µM
- Total growth inhibition (TGI) (HL-60(TB); Leukemia): 7.4 µM
- CC50 (HL-60(TB); read-out: 50% lethal concentration (LC50), Leukemia): > 100 µM
- GI50 (HT29): 2.37 µM
- Total growth inhibition (TGI) (HT29): 6.77 µM
- CC50 (HT29; [2]): > 100 µM
- GI50 (T-47D; Breast): 1.42 µM
- Total growth inhibition (TGI) (T-47D; Breast): 3.47 µM
- CC50 (T-47D; [3]): 8.47 µM
- GI50 (OVCAR-4): 2.31 µM
- CC50 (OVCAR-4; [2]): > 100 µM
- GI50 (MALME-3M; Melanoma): 1.73 µM
- Total growth inhibition (TGI) (MALME-3M; Melanoma): 3.18 µM
- CC50 (MALME-3M; read-out: 50% lethal concentration (LC50), Melanoma): 5.88 µM
- Total growth inhibition (TGI) (NCI-H226; NCI-H226, Non-Small Cell Lung): 4.31 µM
- GI50 (NCI-H226; NCI-H226, Non-Small-Cell Lung): 1.95 µM
- CC50 (NCI-H226; read-out: 50% lethal concentration (LC50), NCI-H226, Non-Small Cell Lung): 9.55 µM
- GI50 (HCT-116): 1.61 µM
- Total growth inhibition (TGI) (HCT-116): 3.55 µM
- CC50 (HCT-116; [2]): 7.83 µM
- GI50 (MOLT-4): 1.97 µM
- Total growth inhibition (TGI) (MOLT-4): > 100 µM
- CC50 (MOLT-4; [2]): > 100 µM
